# According to ChEMBL document CHEMBL3885881, “DrugMatrix”:
# Organism: Rattus norvegicus
# Experiment: DrugMatrix - Regimen: Daily Repeat
# Assay type: toxicity, organism-based, Sprague-Dawley
# Set-up: regimen Daily Repeat, gender Male, age 6-8 weeks
# Settings: in vivo, po, route oral GAVAGE, vehicle 100 % SALINE; for TOTAL BILIRUBIN / URIC ACID / ALANINE AMINOTRANSFERASE / ALBUMIN / ALKALINE PHOSPHATASE / ASPARTATE AMINOTRANSFERASE / BLOOD UREA NITROGEN / CARBON DIOXIDE / CHLORIDE / CHOLESTEROL / CREATINE PHOSPHOKINASE / CREATININE / GLUCOSE / LIPASE / PHOSPHORUS / POTASSIUM / SODIUM / TOTAL PROTEIN: tissue Plasma; for ABSOLUTE BASOPHIL / ABSOLUTE EOSINOPHIL / ABSOLUTE LYMPHOCYTE / ABSOLUTE MONOCYTE / BASOPHIL / EOSINOPHIL / ERYTHROCYTE COUNT / HEMATOCRIT / HEMOGLOBIN / LEUKOCYTE COUNT / LYMPHOCYTE / MEAN CORPUSCULAR HEMOGLOBIN / MEAN CORPUSCULAR HEMOGLOBIN CONCENTRATION / MEAN CORPUSCULAR VOLUME / MONOCYTE / NEUTROPHIL / PLATELET COUNT: tissue Blood
# [1] = 0 mg/kg, 120 h, dose level Control, time 5 day
# [2] = 0 mg/kg, […], dose level Control, time 14 day
# [3] = 2 mg/kg, 72 h, dose level High, time 3 day
# [4] = 2 mg/kg, 120 h, dose level High, time 5 day
# [5] = 2 mg/kg, […], dose level High, time 14 day
structure (smiles),measurement,setting,value
COc1cccc2c1C(=O)c1c(O)c3c(c(O)c1C2=O)C[C@@](O)(C(C)=O)C[C@@H]3O[C@H]1C[C@H](N)[C@H](O)[C@H](C)O1 [DAUNORUBICIN],TOTAL BILIRUBIN,[1],0.37 mg/dL
same,URIC ACID,[1],0.97 mg/dL
same,ABSOLUTE BASOPHIL,[2],93.3 cells/µL
same,ABSOLUTE EOSINOPHIL,[2],80 cells/µL
same,ABSOLUTE LYMPHOCYTE,[2],6890 cells/µL
same,ABSOLUTE MONOCYTE,[2],170 cells/µL
same,BASOPHIL,[2],1%
same,EOSINOPHIL,[2],0.83%
same,ERYTHROCYTE COUNT,[2],7.03 x10E6/uL
same,HEMATOCRIT,[2],43.4%
same,HEMOGLOBIN,[2],14.83 G/DL
same,LEUKOCYTE COUNT,[2],8.94 x10E3/uL
same,LYMPHOCYTE,[2],77.93%
same,MEAN CORPUSCULAR HEMOGLOBIN,[2],21.1 pg
same,MEAN CORPUSCULAR HEMOGLOBIN CONCENTRATION,[2],34.17 G/DL
same,MEAN CORPUSCULAR VOLUME,[2],61.77 fL
same,MONOCYTE,[2],1.33%
same,NEUTROPHIL,[2],18%
same,PLATELET COUNT,[2],1097.33 x10E3/uL
same,ALANINE AMINOTRANSFERASE,[2],32 u/L
same,ALBUMIN,[2],3.83 G/DL
same,ALKALINE PHOSPHATASE,[2],334.67 u/L
same,ASPARTATE AMINOTRANSFERASE,[2],69.33 u/L
same,BLOOD UREA NITROGEN,[2],16 mg/dL
same,CARBON DIOXIDE,[2],40 mmol/L
same,CHLORIDE,[2],105.67 MEQ/L
same,CHOLESTEROL,[2],70.33 mg/dL
same,CREATINE PHOSPHOKINASE,[2],144.67 u/L
same,CREATININE,[2],0.3 mg/dL
same,GLUCOSE,[2],177.67 mg/dL
same,LIPASE,[2],16.33 u/L
same,PHOSPHORUS,[2],10.83 mg/dL
same,POTASSIUM,[2],5.77 MEQ/L
same,SODIUM,[2],143.33 MEQ/L
same,TOTAL BILIRUBIN,[2],0.33 mg/dL
same,TOTAL PROTEIN,[2],6.37 G/DL
same,URIC ACID,[2],0.17 mg/dL
same,ABSOLUTE BASOPHIL,[3],110 cells/µL
same,ABSOLUTE EOSINOPHIL,[3],210 cells/µL
same,ABSOLUTE LYMPHOCYTE,[3],7080 cells/µL
same,ABSOLUTE MONOCYTE,[3],140 cells/µL
same,BASOPHIL,[3],1.17%
same,EOSINOPHIL,[3],2.47%
same,ERYTHROCYTE COUNT,[3],6.67 x10E6/uL
same,HEMATOCRIT,[3],42.37%
same,HEMOGLOBIN,[3],13.97 G/DL
same,LEUKOCYTE COUNT,[3],8.7 x10E3/uL
same,LYMPHOCYTE,[3],80.87%
same,MEAN CORPUSCULAR HEMOGLOBIN,[3],20.97 pg
same,MEAN CORPUSCULAR HEMOGLOBIN CONCENTRATION,[3],33 G/DL
same,MEAN CORPUSCULAR VOLUME,[3],63.57 fL
same,MONOCYTE,[3],1.7%
same,NEUTROPHIL,[3],13.37%
same,PLATELET COUNT,[3],1161.67 x10E3/uL
same,ALANINE AMINOTRANSFERASE,[3],34 u/L
same,ALBUMIN,[3],3.9 G/DL
same,ALKALINE PHOSPHATASE,[3],354 u/L
same,ASPARTATE AMINOTRANSFERASE,[3],68 u/L
same,BLOOD UREA NITROGEN,[3],16.67 mg/dL
same,CARBON DIOXIDE,[3],36 mmol/L
same,CHLORIDE,[3],104 MEQ/L
same,CHOLESTEROL,[3],67.67 mg/dL
same,CREATINE PHOSPHOKINASE,[3],219 u/L
same,CREATININE,[3],0.4 mg/dL
same,GLUCOSE,[3],175 mg/dL
same,LIPASE,[3],11 u/L
same,PHOSPHORUS,[3],12.2 mg/dL
same,POTASSIUM,[3],6.47 MEQ/L
same,SODIUM,[3],142.67 MEQ/L
same,TOTAL BILIRUBIN,[3],0.37 mg/dL
same,TOTAL PROTEIN,[3],6.43 G/DL
same,URIC ACID,[3],1.17 mg/dL
same,ABSOLUTE BASOPHIL,[4],75 cells/µL
same,ABSOLUTE EOSINOPHIL,[4],40 cells/µL
same,ABSOLUTE LYMPHOCYTE,[4],7990 cells/µL
same,ABSOLUTE MONOCYTE,[4],140 cells/µL
same,BASOPHIL,[4],0.9%
same,EOSINOPHIL,[4],0.5%
same,ERYTHROCYTE COUNT,[4],6.82 x10E6/uL
same,HEMATOCRIT,[4],42.9%
same,HEMOGLOBIN,[4],13.75 G/DL
same,LEUKOCYTE COUNT,[4],9.39 x10E3/uL
same,LYMPHOCYTE,[4],84.25%
same,MEAN CORPUSCULAR HEMOGLOBIN,[4],20.2 pg
same,MEAN CORPUSCULAR HEMOGLOBIN CONCENTRATION,[4],32.15 G/DL
same,MEAN CORPUSCULAR VOLUME,[4],62.9 fL
same,MONOCYTE,[4],1.5%
same,NEUTROPHIL,[4],12.5%
same,PLATELET COUNT,[4],1293.5 x10E3/uL
same,ALANINE AMINOTRANSFERASE,[4],27.67 u/L
same,ALBUMIN,[4],3.93 G/DL
same,ALKALINE PHOSPHATASE,[4],361.67 u/L
same,ASPARTATE AMINOTRANSFERASE,[4],66 u/L
same,BLOOD UREA NITROGEN,[4],14.67 mg/dL
same,CARBON DIOXIDE,[4],35 mmol/L
same,CHLORIDE,[4],106.67 MEQ/L
same,CHOLESTEROL,[4],68.67 mg/dL
same,CREATINE PHOSPHOKINASE,[4],274.67 u/L
same,CREATININE,[4],0.4 mg/dL
same,GLUCOSE,[4],192.33 mg/dL
same,LIPASE,[4],9 u/L
same,PHOSPHORUS,[4],11.87 mg/dL
same,POTASSIUM,[4],6.67 MEQ/L
same,SODIUM,[4],146 MEQ/L
same,TOTAL BILIRUBIN,[4],0.37 mg/dL
same,TOTAL PROTEIN,[4],6.33 G/DL
same,URIC ACID,[4],1.37 mg/dL
same,ABSOLUTE BASOPHIL,[5],120 cells/µL
same,ABSOLUTE EOSINOPHIL,[5],74 cells/µL
same,ABSOLUTE LYMPHOCYTE,[5],8830 cells/µL
same,ABSOLUTE MONOCYTE,[5],250 cells/µL
same,BASOPHIL,[5],1.1%
same,EOSINOPHIL,[5],0.66%
same,ERYTHROCYTE COUNT,[5],7.41 x10E6/uL
same,HEMATOCRIT,[5],45.06%
same,HEMOGLOBIN,[5],15.1 G/DL
same,LEUKOCYTE COUNT,[5],11 x10E3/uL
same,LYMPHOCYTE,[5],80.4%
same,MEAN CORPUSCULAR HEMOGLOBIN,[5],20.36 pg
same,MEAN CORPUSCULAR HEMOGLOBIN CONCENTRATION,[5],33.46 G/DL
same,MEAN CORPUSCULAR VOLUME,[5],60.78 fL
same,MONOCYTE,[5],2%
same,NEUTROPHIL,[5],15.02%
same,PLATELET COUNT,[5],1090.8 x10E3/uL
same,ALANINE AMINOTRANSFERASE,[5],31.8 u/L
same,ALBUMIN,[5],3.88 G/DL
same,ALKALINE PHOSPHATASE,[5],326.6 u/L
same,ASPARTATE AMINOTRANSFERASE,[5],64.8 u/L
same,BLOOD UREA NITROGEN,[5],16.6 mg/dL
same,CARBON DIOXIDE,[5],42.4 mmol/L
same,CHLORIDE,[5],106 MEQ/L
same,CHOLESTEROL,[5],66.4 mg/dL
same,CREATINE PHOSPHOKINASE,[5],203 u/L
same,CREATININE,[5],0.4 mg/dL
same,GLUCOSE,[5],167.6 mg/dL
same,LIPASE,[5],12.4 u/L
same,PHOSPHORUS,[5],9.42 mg/dL
same,POTASSIUM,[5],6.3 MEQ/L
same,SODIUM,[5],144.4 MEQ/L
same,TOTAL BILIRUBIN,[5],0.4 mg/dL
same,TOTAL PROTEIN,[5],6.36 G/DL
same,URIC ACID,[5],0.04 mg/dL
